Measured values: PMC9256669, “Monomethyl auristatin antibody and peptide drug conjugates for trimodal cancer chemo-radio-immunotherapy” (Nature Communications, 2022)
“And” between values parts separate entries of the source, which are not always exact repeats. Identical values can stand only once. Non-standard residues stand in square brackets, D forms with d. Residues, ends and D or L forms follow the SMILES beside them. *: point of attachment. Dolaproine = CO[C@@H]([C@@H]1CCCN1)[C@@H](C)C(=O)O; Dil = CC[C@H](C)[C@H](NC)[C@@H](CC(=O)O)OC; X1 = C[C@@H](N*)[C@@H](O)c1ccccc1; NMeV = CN[C@H](C(=O)O)C(C)C

Legend:
4MOSC1 tumors = test: Orthotopic syngeneic tumor ACPP therapy, tumor volumes; type: in vivo, C57BL/6 mice; settings: orthotopic 4MOSC1 tumors, conjugate monotherapy
Excerpt: (§1) Orthotopic tongue xenograft tumors were established in 6-week-old NOD SCID mice by injecting 150,000 CAL27 parental (WT) or PIK3CA H1047R-expressing cells. […] On the last day of tumor xenograft measurements, mice were euthanized, tongues resected, imaged, and fixed. […] IR was delivered as 2 parallel opposed fields.

B16 tumors [1] = tested on: B16 tumors; parameters: species or system RAG1 KO mice; settings: mouse, in vivo
Description: FSC-A FSC-H SCC-H Live Dead-Blue
(§2) Representative flow cytometry plots to gate immune cells quantitated in Fig. 4a, b, 4d &
Supplementary Fig. 10b, c. b) Quantification of tumor immune cell identified by flow cytometry on
Tumors harvested on day 19 and immune cells characterized by flow cytometry. c) Tumor
granzyme B expression. Characterized CD8+ T-cells were further gated for granzyme-B staining
(Clone:GB11). In addition, RNA levelsof tumor granzyme-B was analyzed by qPCR. For
Mice implanted with tumor
Log-rank (Mantel-Cox) test.
Source data are provided in Source Data file. […]

[2] = tested on: orthotopic oral 4MOSC1 tumors; test: Trimodal therapy: ACPP-MMAE, IR and anti-PD-1 antibody; type: in vivo, C57BL/6 mice; settings: Figure 5c; individual mice, one line per mouse
Excerpt: as §1

B16 tumors [3] = tested on: B16 tumors; parameters: species or system C57BL/6 mice; settings: mouse, in vivo
Description: At harvest, tumors were isolated, minced, and re-suspended in FBS-free DMEM media supplemented with components of MACs tumor dissociation kit. Tissues were incubated for 15 min at 37 °C and mechanically digested using the gentle MACs Octo dissociator. Tissue suspensions were washed with fresh media and passed through a 100-µm strainer. Samples were split in half for immediate staining or stimulated with the Biolegend Cell Activation Cocktail (with Brefeldin A) for 3 h. Samples were washed with PBS and immediately processed for live/dead cell discrimination using BD LIVE/DEAD™ Fixable Blue Dead Cell Stain Kit. Cells were washed and stained for surface markers for 30 min at 4 °C. Intracellular staining was performed using the eBioscience FOXP3/Transcription Factor Buffer Set from Invitrogen and stained with intracellular antibodies. […] All antibodies were validated by the supplier. All flow cytometry data acquisition was done using BD LSRFortessa and analyzed using FlowJo software. […]
as §2
Supplementary Fig. 10b, c. b) Quantification of tumor immune cell identified by flow cytometry on […]
(Clone:GB11). In addition, RNA levelsof tumor granzyme-B was analyzed by qPCR. […]

CAL27 = test: Cytotoxicity, Alamar Blue assay; type: cell-based, human; settings: 72 h drug exposure, one value per biological replicate, read-out: IC50 values
Description: (§3) Murine colorectal (MC38 (ENH204-FP)) cancer cell lines were obtained from Kerafast. Murine head and neck MOC1 and MOC2 were generously provided by Dr. R. Uppaluri. CAL27 PIK3CA H1047R expressing cells and 4MOSC1 cells were generated in Dr. Gutkind’s laboratory and previously characterized[42],[55]. […] MC38 cells were cultured in DMEM supplemented with 10% FBS, 1 mM sodium pyruvate (Gibco), 1% non-essential amino acids (Gibco), and 10 mM HEPES (Gibco). MOC1 and MOC2 cells were cultured in IMDM (Lonza)/F-12K nutrient mixture at a 2:1 mixture with 5% FBS, 5 ng/ml EGF (EMD Millipore), 400 ng/ml hydrocortisone (Sigma), and […] insulin (Sigma). On receipt, each cell line was expanded, cryopreserved as low passage stocks, and routinely tested for mycoplasma. Cisplatin (Enzo Biosciences), paclitaxel (Sigma), and MMAE (Concortis) were reconstituted in DMSO. Clinical-grade CDX3379 was provided by Celldex. Clinical grade cetuximab (Erbitux, Lilly Medical) was obtained from UCSD Moores Cancer Center Pharmacy.
(§4) Cells were plated in 96-well plates and exposed to a drug concentration range for 72 h. Alamar Blue was added to the cells and allowed to incubate for 2–4 h at 37 °C. Plates were analyzed using a plate reader with fluorescence measured at 560 nm. Fractional survival was normalized to untreated control cell fluorescent values. Drug IC50 was calculated using Prism software (GraphPad, La Jolla, CA). Cell viability, cytotoxicity and apoptosis were also measured by ApoTox-Glo Triplex Assay (Promega).

Detroit 562 = test: Cytotoxicity, Alamar Blue assay; type: cell-based, human; settings: Detroit 562, 72 h drug exposure, one value per biological replicate, read-out: IC50 values
Description: as §3, §4

A549 = test: Cytotoxicity, Alamar Blue assay; type: cell-based, human; settings: 72 h drug exposure, one value per biological replicate
Description: as §4

HCT116 = test: Cytotoxicity, Alamar Blue assay; type: cell-based, human; settings: 72 h drug exposure, one value per biological replicate
Description: as §4

MOC2 = test: Cytotoxicity, Alamar Blue assay; type: cell-based, murine; settings: MOC2, 72 h drug exposure, one value per biological replicate, read-out: IC50 values
Description: as §3, with “Clinical-grade CDX3379 was provided by Celldex.” left out
as §4
measured by Alamar Blue assay. For Alamar Blue assay cytotoxicity, we measured cell viability at 72 hr of […]

| Compound | tumor growth (4MOSC1 tumors) | tumor control in RAG1 KO mice (B16 tumors [1]) | Mouse survival: status at the day given (Mouse dead = 1, Mouse alive = 0) [2] | CD8 T cell granzyme B (B16 tumors [3]) | Immune checkpoint markers: GZMB, RNA (B16 tumors [3]) | IC50 (CAL27) | IC50 (Detroit 562) | IC50 (A549) | IC50 (HCT116) | IC50 (MOC2) |
| --- | --- | --- | --- | --- | --- | --- | --- | --- | --- | --- |
| cyclo(RGD)fc-MC-HN-peg8-e9-oPLGC(Me)AG-r9-c-(MC-VC-PABC-MMAE)-CONH2 [ACPP-MMAE] | modest tumor growth delay | did not appreciably increase tumor control in RAG1 KO mice compared to IR alone | 1 | increased CD8 T cell granzyme B at both the transcriptional and protein levels | 3.95 and 3.63 | – | – | – | – | – |
| CC[C@H](C)[C@@H]([C@@H](CC(=O)N1CCC[C@H]1[C@H](OC)[C@@H](C)C(=O)N[C@H](C)[C@@H](O)c1ccccc1)OC)N(C)C(=O)[C@@H](NC(=O)[C@@H](NC)C(C)C)C(C)C [MMAE, monomethyl auristatin E] (H-[NMeV]V[Dil][Dolaproine]-X1) | – | – | – | – | – | 0.235 nM and 0.239 nM (2×) and 0.237 nM and 0.177 nM and 0.185 nM | 253 pM and 250 pM and 189 pM and 195 pM | 559 pM and 513 pM | 343 pM and 431 pM and 548 pM and 1430 pM and 1520 pM and 1350 pM | 9290 pM and 11100 pM |
